Data from patent publication US12239647B2, “ALS treatment using induced regulatory T (iTREG) cells” (RAPA THERAPEUTICS, LLC, priority 2018, dated 2025).

Key:
[1] = tested on: human CD4+ and CD8+ T cells; assay: RNA expression of T cell effector molecules after 3-day de-differentiation culture (Luminex Quantigene); assay type: cell-based; settings: 3-day culture, bead:T cell 1:3, temsirolimus 1 μM, Vitamin D 0.1 or 1.0 nM; relative to control Th1/Tc1 culture
Procedure: (§1) At the end of the de-differentiation interval, cells were harvested, RNA was isolated, and RNA expression analysis was performed by Luminex Quantigene method. All results shown represent relative RNA expression, with results normalized to a value of 1.0 for the Th1/Tc1 control culture.

[2] = tested on: human CD4+ and CD8+ T cells; assay: RNA expression of de-differentiation transcription factors and IL-7 receptor alpha after 3-day culture (Luminex Quantigene); assay type: cell-based; settings: bead:T cell 1:3, temsirolimus 1 μM, relative to control culture
Procedure: as §1

[3] = tested on: human CD4+ and CD8+ T cells; assay: RNA expression of Th1 transcription factors and HIF-1-α after 3-day culture (Luminex Quantigene); assay type: cell-based; settings: bead:T cell 1:3, temsirolimus 1 μM, Vitamin D 0.1 to 1.0 nM, relative to control culture
Procedure: as §1

[4] = tested on: human CD4+ and CD8+ T cells; assay: Western blot for autophagy-related molecule p62 after 3-day de-differentiation culture; assay type: cell-based; settings: 3-day culture, bead:T cell 1:3; temsirolimus 1.0 or 0.3 μM, Vitamin D 0.01-1.0 nM, Daclizumab 50 μg/ml as indicated
Description: The level of autophagy can be determined in-part by the subsequent up-regulation of the autophagy substrate, p62, by western blot analysis.
After the 3-day culture interval, the T cells were harvested, and protein was isolated and subjected to western blot analysis for the autophagy-related gene, p62, and the housekeeping gene, Actin.

[5] = tested on: human CD4+ and CD8+ T cells; assay: Western blot for mTORC1-related molecule Raptor after 3-day de-differentiation culture; assay type: cell-based
Description: After the 3-day culture interval, the T cells were harvested, and protein was isolated and subjected to western blot analysis for the mTORC1 complex protein, Raptor, and the housekeeping gene, Actin.

[6] = tested on: human CD4+ and CD8+ T cells; assay: Western blot for Raptor, Rictor, p70S6K and SGK1 after 3-day de-differentiation culture; assay type: cell-based; settings: combination agent de-differentiation: temsirolimus 1 μM, Vitamin D 0.03 to 1.0 nM, Daclizumab 50 μg/ml; relative to control culture
Description: After the 3-day culture interval, the T cells were harvested, and protein was isolated and subjected to western blot analysis for the mTORC1 complex protein, Raptor; the mTORC2 complex protein, Rictor; the post-mTORC1 protein p70S6K; the post-mTORC2 protein, SGK1; and the housekeeping gene, GAPDH.

[7] = tested on: human CD4+ and CD8+ T cells; assay: T cell yield at day 13 after de-differentiation and re-stimulation without inhibitors; assay type: cell-based
Procedure: After 10 days (13 days of total culture), the T cells were harvested, enumerated, and evaluated by flow cytometry. FIG. 8 illustrates the effect of culture components during the de-differentiation interval on subsequent T cell yield (at day 13 of culture). […] After the 3-day interval, media was exchanged to fresh X-Vivo 20 without inhibitors, high-level co-stimulation was provided (3:1 bead-to-T cell ratio), and the T cell growth cytokines IL-2 (100 IU/ml) and IL-7 (10 ng/ml) were added. At day 13 of culture, viable T cells were enumerated and the overall yield is shown relative to day 0 input number.

[8] = tested on: human CD4+ and CD8+ T cells; assay: Cytokine secretion (Luminex) of de-differentiated T cells cultured in polarization-neutral media; assay type: cell-based; settings: vitamin D 0.01 nM during de-differentiation relative to 0.1 nM
Procedure: FIGS. 11A-11D depict the inflammatory Th1/Th17 cytokine analysis of cultured de-differentiated T cells in polarization-neutral media. […] After 3-days, the de-differentiated T cells were co-stimulated (typical bead-to-T cell ratio of 3:1) in media supplemented with the T cell growth cytokines rhu IL-2 (100 IU/ml) and rhu IL-7 (10 ng/ml), which are not potent in terms of inducing T cell polarization. After 10 days in culture (total, day 13 of culture), the T cells were harvested, washed, and re-stimulated with 3/28 beads (3:1 ratio) for 24 hr; the resultant supernatant was harvested and tested for cytokine content by Luminex multi-analyte method. All results shown are expressed as cytokine level in pg per ml per 1×10^6 cells/ml/24 hr.
FIGS. 12A-12D depicts the IL-2 and Th2-type cytokine analysis of cultured de-differentiated T cells in polarization-neutral media. […] After 3-days, the de-differentiated T cells were co-stimulated (typical bead-to-T cell ratio of 3:1) in media supplemented with the T cell growth cytokines rhu IL-2 (100 IU/ml) and rhu IL-7 (10 ng/ml), which are not potent in terms of inducing T cell polarization. […] All results shown are expressed as cytokine level in pg per ml per 1×10^6 cells/ml/24 hr.

[9] = tested on: human CD4+ and CD8+ T cells; assay: Expansion of de-differentiated T cells in Th1, TREG or hybrid Th2/TREG polarization with or without pemetrexed; assay type: cell-based
Procedure: FIG. 13 depicts favorable expansion of de-differentiated T cells in hybrid Th2/TREG polarization condition relative to Th1 polarization condition. Human CD4^+ and CD8^+ T cells were subjected to a 3-day de-differentiation procedure (“STEP 1”). […] In addition, the T cell culture in the presence of the variable polarization conditions was performed without the novel inhibitory molecule, pemetrexed (“0”) or in the presence of variable concentrations of pemetrexed, as indicated (10 nM [“10”]; 33 nM [“33”]; or 100 nM [“100”]. After a total of 10 days of culture, the n=24 cultures were harvested and live cells were enumerated and graphed above (y-axis indicated number of cells×10^6; input cell number was 1.5×10^6 cells).

[10] = tested on: human CD4+ and CD8+ T cells; assay: Flow cytometry of FOXP3, Tbet and GATA3 in extended hybrid Th2/TREG culture with temsirolimus or pemetrexed; assay type: cell-based; settings: hybrid polarization condition with pemetrexed 10 nM
Description: To evaluate these transcription factors in our manufacturing method, T cells were first subjected to the step 1 de-differentiation procedure and then re-differentiated in the hybrid TREG-Th2 culture condition (IL-2, TGF-β, and IL-4). In addition, we compared the effects of pemetrexed with a classical mTOR inhibitor.
The iTREG phenotype is considered to be unstable; as such, we evaluated the stability of T cells re-differentiated using the hybrid TREG-Th2 culture condition at delayed time points, including days 20 and 32 of culture. In addition, to test phenotype stability in a rigorous manner, between day 24 and day 32 of culture, T cells received a high level of co-stimulation (3:1 bead-to-T cell ratio) and were propagated in media without cytokines or pharmacologic agents.
FIGS. 19A-19D illustrate that extended culture of de-differentiated T cells in the hybrid Th2/TREG polarization condition containing pemetrexed results in the generation of CD4^+ T cells expressing FOXP3 and GATA3 transcription factors. […] At days 12, 20, and 32 of culture, T cells were harvested and subjected to surface flow cytometry (CD4 marker) and intra-cellular staining for the following transcription factors, FOXP3, Tbet, and GATA3. The data above show the percent CD4 cells out of the total cultured population (FIG. 19A); the percent of CD4 cells that expressed the TREG transcription factor FOXP3 (FIG. 19B); the percent of CD4 cells that expressed the Th1 transcription factor Tbet (FIG. 19C); and the percent of CD4 cells that expressed the Th2 transcription factor GATA3 (FIG. 19D).
FIGS. 20A-20D illustrate that extended culture of de-differentiated T cells in the hybrid Th2/TREG polarization condition containing pemetrexed results in the generation of CD8^+ T cells expressing FOXP3 and GATA3 transcription factors. […] At days 12, 20, and 32 of culture, T cells were harvested and subjected to surface flow cytometry (CD8 marker) and intra-cellular staining for the following transcription factors, FOXP3, Tbet, and GATA3. […]

[11] = tested on: human CD4+ and CD8+ T cells; assay: Cytokine secretion (Luminex) in extended hybrid Th2/TREG culture with temsirolimus or pemetrexed; assay type: cell-based
Description: (§2) FIGS. 21A-21D illustrates that extended culture of de-differentiated T cells in the hybrid Th2/TREG polarization condition results in the generation of T cells expressing with a predominant Th2 cytokine phenotype: IL-4, IL-5, and IL-13 secretion. […] At days 12, 20, and 32 of culture, the T cells were harvested, washed, and re-stimulated with 3/28 beads (3:1 ratio) for 24 hr; the resultant supernatant was harvested and tested for cytokine content by Luminex multi-analyte method. All results shown are expressed as cytokine level in pg per ml per 1×10^6 cells/ml/24 hr. The Th2 cytokine IL-10 was also evaluated: all values were less than 20 pg/ml per 1×10^6 cells/ml/24 hr.
as §2, with “22A-22D illustrate” for “21A-21D illustrates”, “IL-2, IFN-γ,” for “IL-4, IL-5,”, “GM-CSF” for “IL-13”, “inflammatory cytokines IL-17 and TNF-α were” for “Th2 cytokine IL-10 was”

[12] = tested on: peripheral blood mononuclear cells from an ALS patient; assay: TCR repertoire profiling by RNA sequencing pre- and post-therapy with etanercept; assay type: in vivo, human
Description: (§3) FIGS. 23A & 23B depict the use of RNA-based T cell receptor sequencing to detect a widespread up- and down-regulation of T cell TCR specificities after therapy with the TNF-α inhibitor, etanercept. In FIG. 23, RNA was isolated from peripheral blood mononuclear cells from an ALS patient pre- and post-therapy with etanercept therapy. The RNA was subjected to TCR repertoire profiling, as previously described by Rosati E, Dowds C M, Liaskou E, Henriksen E K K, Karlsen T H, Franke A. Overview of methodologies for T-cell receptor repertoire analysis. BMC Biotechnol. 2017; 17(1): 61.
as §3, with “36A-36B” for “23A & 23B”, “depict” for “depict the”, “FIGS. 36A-36B,” for “FIG. 23,”

[13] = Vitamin D 1.0 nM in combination
[14] = hybrid TREG-Th2 condition, temsirolimus 1.0 μM or pemetrexed 10 nM
[15] = ALS patient, pre- versus post-therapy
[16] = several clones, pre- versus post-treatment

Molecule: C=C1/C(=C\C=C2/CCC[C@]3(C)[C@@H]([C@H](C)CCCC(C)(C)O)CC[C@@H]23)C[C@@H](O)C[C@@H]1O [Vitamin D, Calcitriol]
- Granzyme B RNA expression [1]: reduction
- IFN-gamma RNA expression [1]: reduction
- IL-10 RNA expression [1]: reduction
- IL-7 receptor alpha RNA expression [2, 13]: not Vitamin D alone
- KLF4 RNA expression [2, 13]: neither temsirolimus nor Vitamin D alone increased
- KLF10 RNA expression [2, 13]: does not act alone to up-regulate
- Nanog RNA expression ([2]; Vitamin D 0.1 or 1.0 nM): does not act alone to up-regulate
- HIF-1-α RNA expression [3]: did not down-regulate
- STAT1 RNA expression [3]: acts alone to beneficially down-regulate
- T-BET RNA expression [3]: acts alone to beneficially down-regulate
- p62 expression (western blot, autophagy marker) [4]: increased p62 expression
- Raptor expression ([5]; Vitamin D 0.3 nM (culture 7), versus 0.1 nM): higher level of Raptor expression
- Raptor inhibition ([5]; Vitamin D level reduced to 0.01 nM): sub-optimal Raptor inhibition
- Rictor expression (western blot, FIG. 6) [6]: effective
- T cell yield at day 13 of culture ([7]; Vitamin D concentration increased to 1.0 nM (column #6)): very low yield
- T cell yield at day 13 of culture ([7]; Vitamin D concentration reduced to 0.01 nM (column #5)): very low yield
- preferable concentration for T cell yield ([7]; de-differentiation interval): 0.1 nM
- IFN-γ secretion [8]: somewhat higher levels
- TNF-α secretion [8]: somewhat higher levels

Molecule: Nc1nc2[nH]cc(CCc3ccc(C(=O)N[C@@H](CCC(=O)O)C(=O)O)cc3)c2c(=O)[nH]1 [pemetrexed]
- concentration for optimal T cell re-differentiation (numerical perspective) ([9]; TREG-Th2 hybrid polarization (IL-2, TGF-β, IL-4)): 10 nM
- T cell number after re-differentiation in TREG-Th2 polarization condition ([9]; most stringent de-differentiation (temsirolimus, vitamin D, anti-IL-2 receptor antibody), pemetrexed 10 nM in step 2, 10 days): sufficient T cells
- T cell number after re-differentiation in pure TREG polarizing condition (IL-2 plus TGF-β without IL-4) ([9]; most stringent de-differentiation, in the presence of pemetrexed (cultures #20 and #21)): unsuccessful
- T cell yield after re-differentiation in Th1-type polarization ([9]; pemetrexed not added or 10 to 100 nM, input 1.5×10^6 cells): greatly limited ability to re-differentiate
- percent of CD8 cells that expressed Tbet [10]: lowest levels
- percent of CD4 cells that expressed Tbet ([10]; days 12, 20, 32): most consistently reduced TBET values
- percent of CD4 cells that expressed GATA3 ([10]; end of culture): highest end-of-culture Th2-associated GATA3 expression
- GM-CSF secretion ([11]; hybrid TREG-Th2 condition supplemented with pemetrexed 10 nM): higher degree
- IL-5 secretion [11, 14]: fully preserved
- IL-13 secretion [11, 14]: fully preserved

Molecule: etanercept
- TCR specificities down-regulated in the post-therapy sample [12, 15]: approximately 25%
- TCR specificities up-regulated in the post-therapy sample [12, 15]: approximately 25%
- T cell clonal contraction [12, 16]: more than 4 log
- T cell clonal expansion [12, 16]: more than 4 log
- post-treatment frequencies of contracted T cell clones ([12]; several clones, 259 to 598 pre-etanercept): 0.01
